Data on 22 molecules can be found in ChEMBL document CHEMBL1781956, “Design, synthesis and insulin-sensitizing activity of indomethacin and diclofenac derivatives” (Bioorg Med Chem Lett, 2009).

Active and inactive are the calls of the source. The rule behind the calls is not given here.

By EC50 is commonly meant the concentration giving half of the maximal effect. Low readings indicate higher potency in that assay, high ones lower potency in that assay.

Format in all cases: functional
Test [1] relates to 3T3-L1. Kind of test: Insulin sensitizing activity in mouse 3T3L1 cells assessed as triglyceride accumulation at 1 uM by insulin-regulated cell differentiation assay relative to rosiglitazone.
Test [2] deals with 3T3-L1. Kind of test: Insulin sensitizing activity in mouse 3T3L1 cells assessed as triglyceride accumulation by insulin-regulated cell differentiation assay.
In test [3] the target is T1, Peroxisome proliferator-activated receptor gamma (Homo sapiens, UniProt P37231).
T1 sequence (P37231 whole entry): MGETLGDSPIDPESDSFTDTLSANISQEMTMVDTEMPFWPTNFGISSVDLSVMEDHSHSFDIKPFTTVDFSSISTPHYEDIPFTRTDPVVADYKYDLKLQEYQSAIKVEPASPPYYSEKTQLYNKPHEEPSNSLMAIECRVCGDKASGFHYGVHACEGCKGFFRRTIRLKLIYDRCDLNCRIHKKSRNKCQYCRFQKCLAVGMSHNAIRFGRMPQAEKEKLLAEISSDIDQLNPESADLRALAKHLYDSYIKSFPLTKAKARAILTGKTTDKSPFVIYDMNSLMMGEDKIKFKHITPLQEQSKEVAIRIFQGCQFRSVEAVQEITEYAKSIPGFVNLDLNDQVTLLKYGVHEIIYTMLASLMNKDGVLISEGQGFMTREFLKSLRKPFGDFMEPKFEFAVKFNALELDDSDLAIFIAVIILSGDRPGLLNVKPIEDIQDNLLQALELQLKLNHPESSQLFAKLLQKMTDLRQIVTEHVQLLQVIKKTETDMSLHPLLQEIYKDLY
Kind of test: Agonist activity at human PPARgamma in human U2OS cells by cell based transactivation assay.

The target in test [4] is T2, Peroxisome proliferator-activated receptor gamma (Homo sapiens) (UniProt P37231).
T2 sequence (whole entry): T1 sequence (P37231 whole entry)
Kind of test: Agonist activity at human PPARgamma in human U2OS cells by cell based transactivation assay relative to rosiglitazone.

`Cc1oc(-c2ccc(-c3ccccc3)cc2)nc1CCOc1ccc2c(c1)c(CC(=O)O)c(C)n2C(=O)c1ccc(Cl)cc1`: the Activity in the test on 3T3-L1 [1] was determined as 129%. The EC30 in the test on 3T3-L1 [2] is reported as 3.31 ×10⁻⁸ M. Besides, the response in test [3] was half-maximal at 40 nM (EC50). Also, the Emax in test [4] stood at 134%.
`COC(=O)Cc1c(C)n(C(=O)c2ccc(Cl)cc2)c2ccc(OCCC/C=C(\C)CC/C=C(\C)CCC=C(C)C)cc12`: the Activity in the test on 3T3-L1 [1] was 81%. In the test with 3T3-L1 [2], the EC30 is listed as 2.88 ×10⁻⁷ M.
As for `O=C(O)Cc1ccc(OCc2ccccc2)cc1Nc1c(Cl)cccc1Cl`, the Activity in the test on 3T3-L1 [1] came out at 98%. For the same molecule, in the test with 3T3-L1 [2], the EC30 amounted to 2.51 ×10⁻⁷ M. The molecule further showed an Emax in test [4] of 35%.
For the molecule `Cc1c(CC(=O)O)c2cc(OCCN3CCOCC3)ccc2n1C(=O)c1ccc(Cl)cc1`, the Activity in the test on 3T3-L1 [1] was determined as 36%.
Consider `COC(=O)Cc1c(C)n(C(=O)c2ccc(Cl)cc2)c2ccc(OCCc3nc(-c4cccc(OC)c4)oc3C)cc12`, for which, in the test with 3T3-L1 [1], the Activity stood at 85%. The EC30 in the test on 3T3-L1 [2] is 3.16 ×10⁻⁷ M.
The like results for `CN(CCOc1ccc(CC2SC(=O)NC2=O)cc1)c1ccccn1` (centres undefined) [ROSIGLITAZONE] were, in that order, 100% and 1.05 ×10⁻⁷ M.
In the case of `Cc1c(CC(=O)O)c2cc(OCc3ccccc3)ccc2n1C(=O)c1ccc(Cl)cc1`, in the test with 3T3-L1 [1], the Activity is 126%. Moreover, the EC30 with 3T3-L1 [2] is 9.51 ×10⁻⁹ M. The EC50 entry in test [3] (u2os) was “Not Active”. Besides, in test [4], the Emax entry is “inactive”.
In the case of `COC(=O)Cc1c(C)n(C(=O)c2ccc(Cl)cc2)c2ccc(OCCN3CCOCC3)cc12`, the Activity with 3T3-L1 [1] is recorded as 42%.
On the same count and under the same terms, the result for `Cc1c(CC(=O)O)c2cc(OCCN3COc4ccccc4C3=O)ccc2n1C(=O)c1ccc(Cl)cc1` reads 41%.
Consider `CCc1ccc(CCOc2ccc3c(c2)c(CC(=O)O)c(C)n3C(=O)c2ccc(Cl)cc2)nc1`, for which the Activity in the test with 3T3-L1 [1] was determined as 42%. Moreover, in the test on 3T3-L1 [2], the EC30 was 5.89 ×10⁻⁶ M.
The matching figures for `COc1cccc(-c2nc(CCOc3ccc4c(c3)c(CC(=O)O)c(C)n4C(=O)c3ccc(Cl)cc3)c(C)o2)c1`: 76% and 3.75 ×10⁻⁷ M.
With `Cc1c(CC(=O)O)c2cc(OCCN3CCCCC3)ccc2n1C(=O)c1ccc(Cl)cc1`, the Activity in the test with 3T3-L1 [1] stood at 30%.
Take `COC(=O)Cc1c(C)n(C(=O)c2ccc(Cl)cc2)c2ccc(OCCc3nc(-c4ccccc4)oc3C)cc12`: the Activity in the test with 3T3-L1 [1] amounted to 80%. Moreover, in the test with 3T3-L1 [2], the EC30 was 2.75 ×10⁻⁷ M. For the same molecule, the midpoint of the response in test [3], the EC50, lay at 620 nM. Also, in test [4], the Emax turned out to be 74%.
Consider `CCc1ccc(CCOc2ccc3c(c2)c(CC(=O)OC)c(C)n3C(=O)c2ccc(Cl)cc2)nc1`, for which the Activity in the test on 3T3-L1 [1] is listed as 50%. The EC30 with 3T3-L1 [2] came to 1.7 ×10⁻⁶ M.
In the case of `COC(=O)Cc1c(C)n(C(=O)c2ccc(Cl)cc2)c2ccc(OCCN3CCCCC3)cc12`, the Activity in the test on 3T3-L1 [1] came to 33%.
For the molecule `COC(=O)Cc1c(C)n(C(=O)c2ccc(Cl)cc2)c2ccc(OCc3ccccc3)cc12`, the Activity in the test on 3T3-L1 [1] stood at 134%. Moreover, the EC30 in the test with 3T3-L1 [2] was found to be 6.56 ×10⁻⁹ M. Also, the EC50 result in test [3] (u2os) is given as “Not Active”. In addition, the Emax result in test [4] was “inactive”.
With `COC(=O)Cc1c(C)n(C(=O)c2ccc(Cl)cc2)c2ccc(OCCN3COc4ccccc4C3=O)cc12`, in the test on 3T3-L1 [1], the Activity is given as 47%.
Same read-out and setting: the value for `Cc1oc(-c2ccc(Cl)cc2)nc1CCOc1ccc2c(c1)c(CC(=O)O)c(C)n2C(=O)c1ccc(Cl)cc1` was 38%.
For `COC(=O)Cc1c(C)n(C(=O)c2ccc(Cl)cc2)c2ccc(OCCc3nc(-c4ccc(Cl)cc4)oc3C)cc12`, the Activity in the test on 3T3-L1 [1] worked out at 57%. In addition, the EC30 in the test on 3T3-L1 [2] is listed as 2 ×10⁻⁶ M.
With `CC(C)=CCC/C(C)=C/CC/C(C)=C/CCCOc1ccc2c(c1)c(CC(=O)O)c(C)n2C(=O)c1ccc(Cl)cc1`, the Activity in the test with 3T3-L1 [1] is given as 74%. The EC30 in the test on 3T3-L1 [2] is given as 6.92 ×10⁻⁷ M.
Consider `Cc1oc(-c2ccccc2)nc1CCOc1ccc2c(c1)c(CC(=O)O)c(C)n2C(=O)c1ccc(Cl)cc1`, for which the Activity in the test on 3T3-L1 [1] turned out to be 36%. Further, the EC30 with 3T3-L1 [2] is 6.17 ×10⁻⁶ M. In addition, in test [4], the Emax was 79%.
As to `COC(=O)Cc1c(C)n(C(=O)c2ccc(Cl)cc2)c2ccc(OCCc3nc(-c4ccc(-c5ccccc5)cc4)oc3C)cc12`, in the test with 3T3-L1 [1], the Activity worked out at 138%. Also, in the test on 3T3-L1 [2], the EC30 was 1.23 ×10⁻⁸ M. In addition, in test [3], the 50% effective concentration (EC50) is 20 nM. The molecule further came in with an Emax in test [4] of 141%.
